Experimental data as given in patent publication US10780090B2, “Heteroaryl compounds useful as inhibitors of SUMO activating enzyme” (Millennium Pharmaceuticals, Inc., priority 2014, dated 2020).

Target: recombinant human SAE enzyme (Homo sapiens (Human), UniProt Q9UBT2)
Assay: SAE HTRF enzyme assay
Assay type: biochemical
Conditions: for inhibition at 0.111 µM: read-out: Percent Inhibition
Experimental: Example 215: SAE HTRF enzyme assay
The SAE enzymatic reaction totals 50 μl and contains 50 mM HEPES Hemisodium (pH 7.5), 0.05% BSA, 5 mM MgCl2, 0.5 μM ATP, 250 μM GSH, 0.01 μM Ubc9-GST, 0.125 μM Sumo-Flag and 0.11 nM recombinant human SAE enzyme. The enzymatic reaction mixture, with and without inhibitor, Is incubated at 24° C. for 105 min in a 384-well plate before termination with […] of Stop/Detection buffer (0.1M HEPES Hemisodium pH 7.5, 0.05% Tween20, 20 mM EDTA, 410 mM KF, 0.53 nM Europium-Cryptate labeled monoclonal anti-Flag M2 Antibody (CisBio International) and 8.125 μg/ml PHYCOLINK goat anti-GST allophycocyanin (XL-APC) antibody (Prozyme)). After incubation for 2 hours at 24° C., quantification of FRET is performed on the Pherostar™ (BMG Labtech). Percentage inhibition values at a single concentration or enzyme inhibition (IC50) values are determined from those curves. One skilled in the art will appreciate that the values generated either as percentage inhibition at a single concentration or IC50 values are subject to experimental variation.

[1] = SAE inhibition at compound concentration 0.111 μM
[2] = SAE inhibition, class symbols, legend in nM

Chain of recombinant human SAE enzyme (Q9UBT2 whole entry): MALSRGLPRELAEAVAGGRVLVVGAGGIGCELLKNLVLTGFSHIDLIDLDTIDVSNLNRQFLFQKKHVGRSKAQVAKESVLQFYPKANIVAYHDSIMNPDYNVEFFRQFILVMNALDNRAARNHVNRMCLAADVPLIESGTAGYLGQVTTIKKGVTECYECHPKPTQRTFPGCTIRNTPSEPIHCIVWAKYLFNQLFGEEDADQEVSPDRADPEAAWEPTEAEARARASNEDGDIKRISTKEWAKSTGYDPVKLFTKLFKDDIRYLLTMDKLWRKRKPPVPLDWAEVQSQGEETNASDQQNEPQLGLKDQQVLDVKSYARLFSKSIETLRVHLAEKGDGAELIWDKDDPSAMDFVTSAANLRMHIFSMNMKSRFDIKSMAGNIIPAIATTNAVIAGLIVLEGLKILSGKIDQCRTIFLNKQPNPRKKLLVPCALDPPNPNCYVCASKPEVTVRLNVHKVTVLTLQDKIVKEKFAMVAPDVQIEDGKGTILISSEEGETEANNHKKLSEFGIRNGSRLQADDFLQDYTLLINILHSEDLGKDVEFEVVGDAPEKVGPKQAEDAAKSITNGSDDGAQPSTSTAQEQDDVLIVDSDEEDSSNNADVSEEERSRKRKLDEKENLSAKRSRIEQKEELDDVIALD
Chain of recombinant human SAE enzyme (Q9UBE0 whole entry partner): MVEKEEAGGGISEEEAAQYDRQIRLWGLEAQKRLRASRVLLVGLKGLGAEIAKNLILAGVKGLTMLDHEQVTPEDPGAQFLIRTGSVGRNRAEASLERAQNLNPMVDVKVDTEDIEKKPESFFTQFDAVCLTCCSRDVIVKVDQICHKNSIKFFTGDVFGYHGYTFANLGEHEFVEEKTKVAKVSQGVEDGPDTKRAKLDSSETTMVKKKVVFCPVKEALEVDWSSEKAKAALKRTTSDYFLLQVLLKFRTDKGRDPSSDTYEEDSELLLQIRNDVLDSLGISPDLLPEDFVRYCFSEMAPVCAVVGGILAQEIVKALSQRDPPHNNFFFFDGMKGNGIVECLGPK

| Compound | Percent Inhibition [1] [%] | IC50 [2] [nM] | Percent Inhibition (Concentration 0.111 μM) | IC50 (class symbols A/B/C) [nM] | inhibition at 0.111 µM (Concentration 0.111 μM) [%] |
| --- | --- | --- | --- | --- | --- |
| Cc1sc(C(=O)c2cncnc2N[C@@H]2C[C@H](COS(N)(=O)=O)[C@@H](O)C2)cc1[C@H]1NCCc2ccccc21 (single isomer, unassigned) [I-292b, [(1R,2S,4R)-2-hydroxy-4-{[5-({5-methyl-4-[(1S)-1,2,3,4-tetrahydroisoquinolin-1-yl]-2-thienyl}carbonyl)pyrimidin-4-yl]amino}cyclopentyl]methyl sulfamate or [(1R,2S,4R)-2-hydroxy-4-{[5-({5-methyl-4-[(1R)-1,2,3,4-tetrahydroisoquinolin-1-yl]-2-thienyl}carbonyl)pyrimidin-4-yl]amino}cyclopentyl]methyl sulfamate] | 87 | 10 to 100 | – | – | – |
| NS(=O)(=O)OC[C@H]1C[C@@H](Nc2ncncc2C(=O)c2cc([C@@H]3NCCc4ccc(Cl)nc43)c(Cl)s2)C[C@@H]1O.NS(=O)(=O)OC[C@H]1C[C@@H](Nc2ncncc2C(=O)c2cc([C@H]3NCCc4ccc(Cl)nc43)c(Cl)s2)C[C@@H]1O (mixture of isomers) [I-253, [(1R,2S,4R)-4-{[5-({5-chloro-4-[(8S)-2-chloro-5,6,7,8-tetrahydro-1,7-naphthyridin-8-yl]-2-thienyl}carbonyl)pyrimidin-4-yl]amino}-2-hydroxycyclopentyl]methyl sulfamate and [(1R,2S,4R)-4-{[5-({5-chloro-4-[(8R)-2-chloro-5,6,7,8-tetrahydro-1,7-naphthyridin-8-yl]-2-thienyl}carbonyl)pyrimidin-4-yl]amino}-2-hydroxycyclopentyl]methyl sulfamate] | – | – | 100 | < 10 | – |
| CC(C)(O)c1ccc(C(=O)c2cncnc2N[C@@H]2C[C@H](COS(N)(=O)=O)[C@@H](O)[C@H]2O)s1 [I-202, {(1R,2R,3S,4R)-2,3-dihydroxy-4-[(5-{[5-(2-hydroxypropan-2-yl)-2-thienyl]carbonyl}pyrimidin-4-yl)amino]cyclopentyl}methyl sulfamate] | – | – | – | 10 to 100 | 60 |
| CCc1cccc(Cc2cc(C(=O)c3cncnc3N[C@@H]3C[C@H](COS(N)(=O)=O)[C@@H](O)C3)sc2C)c1 [I-111, {(1R,2S,4R)-4-[(5-{[4-(3-ethylbenzyl)-5-methyl-2-thienyl]carbonyl}pyrimidin-4-yl)amino]-2-hydroxycyclopentyl}methyl sulfamate] | – | – | – | < 10 | 98 |
| Cc1sc(C(=O)c2cncnc2N[C@@H]2C[C@H](COS(N)(=O)=O)[C@@H](O)[C@H]2O)cc1[C@@H]1OCCc2ccccc21 (single isomer, unassigned) [I-250b, [(1R,2R,3S,4R)-4-{[5-({4-[(1R)-3,4-dihydro-1H-isochromen-1-yl]-5-methyl-2-thienyl}carbonyl)pyrimidin-4-yl]amino}-2,3-dihydroxycyclopentyl]methyl sulfamate or [(1R,2R,3S,4R)-4-{[5-({4-[(1S)-3,4-dihydro-1H-isochromen-1-yl]-5-methyl-2-thienyl}carbonyl)pyrimidin-4-yl]amino}-2,3-dihydroxycyclopentyl]methyl sulfamate] | – | – | 98 | < 10 | – |
| NS(=O)(=O)OCC1CC(Nc2ncncc2C(=O)c2cc(C(O)c3cccc(Cl)c3)c(CO)s2)CC1O (mixture of isomers) [I-13, [(1R,2S,4R)-4-{[5-({4-[(R)-(3-chlorophenyl)(hydroxy)methyl]-5-(hydroxymethyl)-2-thienyl}carbonyl)pyrimidin-4-yl]amino}-2-hydroxycyclopentyl]methyl sulfamate and [(1R,2S,4R)-4-{[5-({4-[(S)-(3-chlorophenyl)(hydroxy)methyl]-5-(hydroxymethyl)-2-thienyl}carbonyl)pyrimidin-4-yl]amino}-2-hydroxycyclopentyl]methyl sulfamate] | – | – | 100 | < 10 | – |
| Cc1sc(C(=O)c2cncnc2N[C@@H]2C[C@H](COS(N)(=O)=O)[C@@H](O)C2)cc1[C@@H]1OCC(F)(F)c2ccc(Cl)cc21.Cc1sc(C(=O)c2cncnc2N[C@@H]2C[C@H](COS(N)(=O)=O)[C@@H](O)C2)cc1[C@H]1OCC(F)(F)c2ccc(Cl)cc21 (mixture of isomers) [I-288, [(1R,2S,4R)-4-{[5-({4-[(1R)-7-chloro-4,4-difluoro-3,4-dihydro-1H-isochromen-1-yl]-5-methyl-2-thienyl}carbonyl)pyrimidin-4-yl]amino}-2-hydroxycyclopentyl]methyl sulfamate and [(1R,2S,4R)-4-{[5-({4-[(1S)-7-chloro-4,4-difluoro-3,4-dihydro-1H-isochromen-1-yl]-5-methyl-2-thienyl}carbonyl)pyrimidin-4-yl]amino}-2-hydroxycyclopentyl]methyl sulfamate] | 99 | < 10 | – | – | – |
| Cc1sc(C(=O)c2cncnc2N[C@@H]2C[C@H](COS(N)(=O)=O)[C@@H](O)C2)cc1[C@@H]1OCOc2ccccc21 (single isomer, unassigned) [I-280b, [(1R,2S,4R)-4-{[5-({4-[(4R)-4H-1,3-benzodioxin-4-yl]-5-methyl-2-thienyl}carbonyl)pyrimidin-4-yl]amino}-2-hydroxycyclopentyl]methyl sulfamate or [(1R,2S,4R)-4-{[5-({4-[(4S)-4H-1,3-benzodioxin-4-yl]-5-methyl-2-thienyl}carbonyl)pyrimidin-4-yl]amino}-2-hydroxycyclopentyl]methyl sulfamate] | 100 | < 10 | – | – | – |
| NS(=O)(=O)OC[C@H]1C[C@@H](Nc2ncncc2C(=O)c2cc([C@@H]3OCCc4ccccc43)cs2)C[C@@H]1O.NS(=O)(=O)OC[C@H]1C[C@@H](Nc2ncncc2C(=O)c2cc([C@H]3OCCc4ccccc43)cs2)C[C@@H]1O (mixture of isomers) [I-254, [(1R,2S,4R)-4-{[5-({4-[(1R)-3,4-dihydro-1H-isochromen-1-yl]-2-thienyl}carbonyl)pyrimidin-4-yl]amino}-2-hydroxycyclopentyl]methyl sulfamate and [(1R,2S,4R)-4-{[5-({4-[(1S)-3,4-dihydro-1H-isochromen-1-yl]-2-thienyl}carbonyl)pyrimidin-4-yl]amino}-2-hydroxycyclopentyl]methyl sulfamate] | – | – | 99 | < 10 | – |
| NS(=O)(=O)OC[C@H]1C[C@@H](Nc2ncncc2C(=O)c2cc(CN3Cc4ccccc4C3)cs2)C[C@@H]1O [I-187, {(1R,2S,4R)-4-[(5-{[4-(1,3-dihydro-2H-isoindol-2-ylmethyl)-2-thienyl]carbonyl}pyrimidin-4-yl)amino]-2-hydroxycyclopentyl}methyl sulfamate] | – | – | – | 10 to 100 | 76 |
| N[C@@H](c1cccc(Br)n1)c1cc(C(=O)c2cncnc2N[C@@H]2C[C@H](COS(N)(=O)=O)[C@@H](O)[C@H]2O)sc1Cl (single isomer, unassigned) [I-10b, [(1R,2R,3S,4R)-4-{[5-({4-[(R)-amino(6-bromopyridin-2-yl)methyl]-5-chloro-2-thienyl}carbonyl)pyrimidin-4-yl]amino}-2,3-dihydroxycyclopentyl]methyl sulfamate or [(1R,2R,3S,4R)-4-{[5-({4-[(S)-amino(6-bromopyridin-2-yl)methyl]-5-chloro-2-thienyl}carbonyl)pyrimidin-4-yl]amino}-2,3-dihydroxycyclopentyl]methyl sulfamate] | – | – | 97 | < 10 | – |
| NS(=O)(=O)OC[C@H]1C[C@@H](Nc2ncncc2C(=O)c2cc([C@@]3(c4ccccc4)CCCO3)cs2)C[C@@H]1O (single isomer, unassigned) [I-32a, [(1R,2S,4R)-2-hydroxy-4-{[5-({4-[(2S)-2-phenyltetrahydrofuran-2-yl]-2-thienyl}carbonyl)pyrimidin-4-yl]amino}cyclopentyl]methyl sulfamate or [(1R,2S,4R)-2-hydroxy-4-{[5-({4-[(2R)-2-phenyltetrahydrofuran-2-yl]-2-thienyl}carbonyl)pyrimidin-4-yl]amino}cyclopentyl]methyl sulfamate] | – | – | 98 | < 10 | – |
| NS(=O)(=O)OC[C@H]1C[C@@H](Nc2ncncc2C(=O)c2cc([C@@H]3OCCc4cc(F)c(F)cc43)c(Cl)s2)C[C@@H]1O (single isomer, unassigned) [I-290b, [(1R,2S,4R)-4-{[5-({5-chloro-4-[(1R)-6,7-difluoro-3,4-dihydro-1H-isochromen-1-yl]-2-thienyl}carbonyl)pyrimidin-4-yl]amino}-2-hydroxycyclopentyl]methyl sulfamate or [(1R,2S,4R)-4-{[5-({5-chloro-4-[(1S)-6,7-difluoro-3,4-dihydro-1H-isochromen-1-yl]-2-thienyl}carbonyl)pyrimidin-4-yl]amino}-2-hydroxycyclopentyl]methyl sulfamate] | 97 | < 10 | – | – | – |
| N[C@@H](c1cccc(Br)n1)c1cc(C(=O)c2cncnc2N[C@@H]2C[C@H](COS(N)(=O)=O)[C@@H](O)C2)sc1Cl (single isomer, unassigned) [I-18b, [(1R,2S,4R)-4-{[5-({4-[(R)-amino(6-bromopyridin-2-yl)methyl]-5-chloro-2-thienyl}carbonyl)pyrimidin-4-yl]amino}-2-hydroxycyclopentyl]methyl sulfamate or [(1R,2S,4R)-4-{[5-({4-[(S)-amino(6-bromopyridin-2-yl)methyl]-5-chloro-2-thienyl}carbonyl)pyrimidin-4-yl]amino}-2-hydroxycyclopentyl]methyl sulfamate] | – | – | 99 | < 10 | – |
